Measured values reported in ChEMBL document CHEMBL5357060, “Cytotoxic Polyhydroxy-Isoprenoids from Neodidymelliopsis negundinis” (J Nat Prod, 2024).
Converted amounts (≈) assume the structure as drawn.

Legend:
[1] = Cytotoxicity against mouse L929 cells assessed as reduction in cell viability incubated for 5 days by MTT assay; format: toxicity, cell-based
A549 = assay: Antiproliferative activity against human A549 cells assessed as reduction in cell growth incubated for 5 days by MTT assay; format: functional, cell-based; details: A549, 120 h
KB 3-1 = assay: Antiproliferative activity against human KB-3-1 cells assessed as reduction in cell growth incubated for 5 days by MTT assay; format: functional, cell-based; details: KB 3-1, 120 h
Staphylococcus aureus [2] = assay: Antibacterial activity against Staphylococcus aureus DSM 346 incubated overnight by serial dilution assay; format: functional
Candida albicans [3] = assay: Antibiofilm activity against Candida albicans DSM 11225 assessed as increase in biofilm inhibition at 125 microg/ml incubated for 24 hrs by crystal violet staining based plate reader analysis relative to control; format: functional; set-up: scale not given: the % may be the effect or the level left; details: dose 125 µg/ml
SK-OV-3 = assay: Antiproliferative activity against human SK-OV-3 cells assessed as reduction in cell growth incubated for 5 days by MTT assay; format: functional, cell-based; details: SK-OV-3, 120 h
MCF7 = assay: Antiproliferative activity against human MCF7 cells assessed as reduction in cell growth incubated for 5 days by MTT assay; format: functional, cell-based; details: MCF7, 120 h
Candida albicans [4] = assay: Antibiofilm activity against Candida albicans DSM 11225 assessed as increase in biofilm inhibition at 250 ug/ml incubated for 24 hrs by crystal violet staining based plate reader analysis relative to control; format: functional; set-up: scale not given: the % may be the effect or the level left; details: dose 250 µg/ml
PC-3 = assay: Antiproliferative activity against human PC-3 cells assessed as reduction in cell growth incubated for 5 days by MTT assay; format: functional, cell-based; details: PC-3, 120 h
A-431 = assay: Antiproliferative activity against human A-431 cells assessed as reduction in cell growth incubated for 5 days by MTT assay; format: functional, cell-based; details: A-431, 120 h
Bacillus subtilis = assay: Antibacterial activity against Bacillus subtilis DSM 10 incubated overnight by serial dilution assay; format: functional
Staphylococcus aureus [5] = assay: Antibiofilm activity against Staphylococcus aureus DSM 1104 assessed as increase in biofilm inhibition at 250 ug/ml incubated for 24 hrs by crystal violet staining based plate reader analysis relative to control; format: functional; set-up: scale not given: the % may be the effect or the level left; details: dose 250 µg/ml

For `C/C(=C\CC/C(C)=C/CO[C@@H]1O[C@H](CO)[C@@H](O)[C@H](O)[C@@H]1O)CC/C=C(\C)CCCC(C)(O)CCCC(C)(O)CCCC(C)(O)CCCC(C)(O)CCCC(C)(O)CCC(O)C(C)(C)O` (some centres not stated), the IC50 at 5 days [1] was 8.1 µM, the IC50 (A549) was 4.8 µM and the IC50 (KB 3-1) was 8.3 µM. For the same compound, the MIC (Staphylococcus aureus [2]) was 33.3 mg/L (≈ 36.3 µM), the Activity (Candida albicans [3]) was 66% and the IC50 (SK-OV-3) was 4.8 µM. The IC50 (MCF7) was 4.8 µM, the Activity (Candida albicans [4]) was 71% and the IC50 (PC-3) was 4.8 µM. It also gave an IC50 (A-431) of 4.8 µM, an MIC (Bacillus subtilis) of 16.6 mg/L (≈ 18.1 µM) and an Activity (Staphylococcus aureus [5]) of 85%.
